Measured values reported in publication PMC11436758, “Computer-aided drug design to generate a unique antibiotic family” (Nature Communications, 2024).
Several values for one entry are separate records, joined by “and”; a condition that tells them apart may be missing. Equal entries are not always repeated.

Columns and labels:
MRSA (ATCC 33591) [1] = test: Mouse cellulitis model of infection, topical treatment; format: in vivo, SKH1 mice; settings: for Wound size (mm2), Mean / Wound size (mm2): Fig 2d
Protocol: SKH1 mice from Charles River were used and male and female mice were utilized, sample size prevented disaggregation of data by sex. Mice were housed with a 12 h light and dark cycle at 21 °C in relative humidity of 40–50%. Investigators were blinded to group allocation, data collection, and data analysis. The formulation for delivery of DNM0547 was Glaxal base (WellSpring Pharmaceutical Canada Corp., Oakville, Canada). Formulation was performed by dissolving compound in Glaxal base to give final concentrations of 2% DNM0547 compound (w/v). MRSA (ATCC #33591) were grown to mid-log phase, concentrated by centrifugation and suspended in sterile PBS at a stock concentration of 2 × 10^11 CFU/mL.
Four week old mice were anesthetized and injected intradermally with 1 × 10^8 CFU/mouse. 4 h after injection, mice were treated with 50 μl 2% DNM0547 cream, or excipient alone. Lesion dimensions were recorded daily for seven days. Food and water were given ad libidum. On day seven, mice were euthanized and the lesion area aseptically removed to 3 mL sterile PBS. The samples were homogenized and serial dilutions were plated on blood agar and incubated at 37 °C to determine CFU. The mouse model of skin infection was performed and evaluated with Washington Biotechnology Inc (Baltimore, MD, USA).

MRSA (ATCC 33591) [2] = test: Rabbit ischemic ear wound model of infection by MRSA, topical treatment; format: in vivo, New Zealand White rabbits; settings: for % wound closure / wound size (mean) / Wound size (mm2): Fig 2a; for Wound size (mm2): individual wounds
Protocol: New Zealand White rabbits from Charles River were employed for this study. Both male and female rabbits were used; sample size prevented disaggregation of data by sex. Investigators were blinded to group allocation, data collection, and data analysis. Food and water were given ad libidum and animals were acclimatized for 7 days with photoperiods of alternating 12 h light and dark at 21 °C in relative humidity of 40–50%. The formulation for delivery of DNM compounds was Glaxal base (WellSpring Pharmaceutical Canada Corp., Oakville, Canada). Formulation was performed by dissolving compound in Glaxal base to give final concentrations of 1% or 2% DNM compound (w/v). The analgesic (Buprenex 0.02 mg/kg sc) and anesthesia (isoflurane (0.5–5% with oxygen carrier 0.5–2 L/min) were used as required during procedures. An ischemia wound healing model was conducted surgically. Each wound was inoculated with 50 μl of 2 × 10^7 CFU/mL MRSA (ATCC #33591) and dressed. After 1 day, wounds were treated with either 50 μl control cream containing vehicle or 50 μl cream containing compound daily. Wounds were assessed and observations recorded using the Draize scoring system. Digital photographs of each wound were obtained and documented.

wild-type AcpS = target: T1, wild-type AcpS (Escherichia coli, UniProt P24224); test: Inhibition of purified wild-type AcpS by DNM0547; format: biochemical, E. coli; settings: for AcpS rate nM/min, Mean / AcpS rate: Suppl Fig 3, [AcpS_WT] 5 nM; for AcpS rate: replicates
T1 construct: 6x-His (C); made in house

[3] = Histopathology (H&E) of treated rabbit ischemic ear wounds, dermal toxicity
Protocol: Wounds were excised, fixed, and routine H&E staining was performed. Wounds were examined for pathology and scored in a blinded manner.
Post-wounding, under anesthesia, animals were euthanized with an intravenous injection of Beuthanasia-D at a dosage of 150 mg/kg of body weight. Specimens including the entire wound, along with ~2–3 mm of the normal unwounded skin margins were harvested. Each ear wound specimen was sectioned into halves. For one half of the wound, the wound was placed into a container with 10% neutral buffered formalin and processed for routine histological evaluation. Wounds were scored on a scale of 0–4 at the wound site for erythema, edema, inflammation, granulation, angiogenesis, and epithelialization. Wounds were characterized in a blinded manner by a board-certified member of the College of American Pathologists.

[4] = 2% cream for 7 days, versus vehicle control

T1 sequence (P24224 whole entry): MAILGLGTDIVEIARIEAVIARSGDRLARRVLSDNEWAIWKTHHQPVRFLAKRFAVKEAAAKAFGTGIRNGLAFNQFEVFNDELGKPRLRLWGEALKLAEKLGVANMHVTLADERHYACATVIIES

CC(C)c1cc(Cl)ccc1-c1cc(-c2nnn[nH]2)c(-c2ccc(Cl)cc2C(C)C)s1 [DNM0547]
reduction in wound size (MRSA (ATCC 33591) [1]; [4]): 4 fold
reduction of bacterial load (MRSA (ATCC 33591) [1]; [4]): > 98%
CFUs (MRSA (ATCC 33591) [1]; Fig 2e, individual animals): 66 CFUs and 3900 CFUs and 0 CFUs (2×) and 57 CFUs
Wound size (mm2), Mean (MRSA (ATCC 33591) [1]; Day 1): 14.643 mm2
Wound size (mm2), Mean (MRSA (ATCC 33591) [1]; Day 2): 24.6313 mm2
Wound size (mm2), Mean (MRSA (ATCC 33591) [1]; Day 3): 14.2828 mm2
Wound size (mm2), Mean (MRSA (ATCC 33591) [1]; Day 4): 14.2975 mm2
Wound size (mm2), Mean (MRSA (ATCC 33591) [1]; Day 5): 12.6205 mm2
Wound size (mm2), Mean (MRSA (ATCC 33591) [1]; Day 6): 11.8387 mm2
Wound size (mm2), Mean (MRSA (ATCC 33591) [1]; Day 7): 14.2246 mm2
Wound size (mm2) (MRSA (ATCC 33591) [1]; individual animals, Day 1): 12.5374 mm2 and 14.3799 mm2 and 14.54 mm2 and 15.8884 mm2 and 15.87 mm2
Wound size (mm2) (MRSA (ATCC 33591) [1]; individual animals, Day 2): 25.0932 mm2 and 30.8908 mm2 and 21.02 mm2 and 14.3128 mm2 and 31.84 mm2
Wound size (mm2) (MRSA (ATCC 33591) [1]; individual animals, Day 3): 14.5538 mm2 and 21.2799 mm2 and 9.59 mm2 and 10.8726 mm2 and 15.12 mm2
Wound size (mm2) (MRSA (ATCC 33591) [1]; individual animals, Day 4): 15.4052 mm2 and 19.652 mm2 and 13.70 mm2 and 11.5756 mm2 and 11.16 mm2
Wound size (mm2) (MRSA (ATCC 33591) [1]; individual animals, Day 5): 9.8797 mm2 and 13.6551 mm2 and 8.00 mm2 and 10.1736 mm2 and 21.40 mm2
Wound size (mm2) (MRSA (ATCC 33591) [1]; individual animals, Day 6): 12.7154 mm2 and 14.2046 mm2 and 11.72 mm2 and 7.547 mm2 and 13.01 mm2
Wound size (mm2) (MRSA (ATCC 33591) [1]; individual animals, Day 7): 15.755 mm2 and 18.619 mm2 and 16.44 mm2 and 5.851 mm2 and 14.46 mm2
% wound closure (MRSA (ATCC 33591) [2]; Day 1): 0%
wound size (mean) (MRSA (ATCC 33591) [2]; Day 1): 30.44 mm2
% wound closure (MRSA (ATCC 33591) [2]; Day 3): 2.62%
wound size (mean) (MRSA (ATCC 33591) [2]; Day 3): 29.642 mm2
% wound closure (MRSA (ATCC 33591) [2]; Day 6): 5.42%
wound size (mean) (MRSA (ATCC 33591) [2]; Day 6): 28.797 mm2
% wound closure (MRSA (ATCC 33591) [2]; Day 9): 32.45%
wound size (mean) (MRSA (ATCC 33591) [2]; Day 9): 20.563 mm2
% wound closure (MRSA (ATCC 33591) [2]; Day 12): 53.18%
wound size (mean) (MRSA (ATCC 33591) [2]; Day 12): 14.254 mm2
% wound closure (MRSA (ATCC 33591) [2]; Day 15): 73.94%
wound size (mean) (MRSA (ATCC 33591) [2]; Day 15): 7.93 mm2
% wound closure (MRSA (ATCC 33591) [2]; Day 18): 87.25%
wound size (mean) (MRSA (ATCC 33591) [2]; Day 18): 3.88 mm2
% wound closure (MRSA (ATCC 33591) [2]; Day 21): 97.93%
wound size (mean) (MRSA (ATCC 33591) [2]; Day 21): 0.636 mm2
Wound size (mm2) (MRSA (ATCC 33591) [2]; Day 1): 29.51 mm2 and 29.83 mm2 and 28.32 mm2 and 27.53 mm2 and 32.52 mm2 and 34.03 mm2 and 26.69 mm2 and 25.2 mm2 and 36.13 mm2 and 34.64 mm2
Wound size (mm2) (MRSA (ATCC 33591) [2]; Day 3): 31.06 mm2 and 29.08 mm2 and 27.25 mm2 and 24.3 mm2 and 31.24 mm2 and 33.16 mm2 and 27.53 mm2 and 25.7 mm2 and 33.48 mm2 and 33.62 mm2
Wound size (mm2) (MRSA (ATCC 33591) [2]; Day 6): 28.85 mm2 and 31.18 mm2 and 26.33 mm2 and 24.01 mm2 and 30.73 mm2 and 32.69 mm2 and 26.4 mm2 and 21.93 mm2 and 33.19 mm2 and 32.66 mm2
Wound size (mm2) (MRSA (ATCC 33591) [2]; Day 9): 23.09 mm2 and 21.11 mm2 and 22.61 mm2 and 20.99 mm2 and 19.44 mm2
Wound size (mm2) (MRSA (ATCC 33591) [2]; Day 15): 10.17 mm2 and 8.72 mm2 and 14.95 mm2 and 20.1 mm2 and 0.9 mm2 and 0.08 mm2 and 1.02 mm2 and 4 mm2 and 10.8 mm2 and 8.56 mm2
Wound size (mm2) (MRSA (ATCC 33591) [2]; Day 18): 8.29 mm2 and 0.93 mm2 and 7.78 mm2 and 10.81 mm2 and 0.41 mm2 and 0 mm2 and 0.53 mm2 and 2.2 mm2 and 3.09 mm2 and 4.76 mm2
Wound size (mm2) (MRSA (ATCC 33591) [2]; Day 21): 0 mm2 (8×) and 5.12 mm2 and 1.24 mm2
reduction in bacterial survival as compared to vehicle control (MRSA (ATCC 33591) [2]; quantitative microbiology at day 14, topical): > 99%
bacteria in the wound (CFUs per gram of tissue at end of study) (MRSA (ATCC 33591) [2]; topical 2%): effectively eliminated bacteria from the wound
day of complete wound closure (MRSA (ATCC 33591) [2]; topical 2%): ≤ 21 days
wound closure (MRSA (ATCC 33591) [2]; topical for 14 days, versus vehicle control): significantly improved wound closure
IC50 (wild-type AcpS): 5.1 µM
AcpS rate nM/min, Mean (wild-type AcpS; Drug Conc 1 uM): 40.51 nM/min
AcpS rate (wild-type AcpS; Drug Conc 1 uM): 41.16 nM/min and 37.27 nM/min and 43.10 nM/min
AcpS rate nM/min, Mean (wild-type AcpS; Drug Conc 2 uM): 36.72 nM/min
AcpS rate (wild-type AcpS; Drug Conc 2 uM): 35.90 nM/min and 37.65 nM/min and 36.61 nM/min
AcpS rate nM/min, Mean (wild-type AcpS; Drug Conc 4 uM): 24.24 nM/min
AcpS rate (wild-type AcpS; Drug Conc 4 uM): 27.20 nM/min and 22.45 nM/min and 23.08 nM/min
AcpS rate nM/min, Mean (wild-type AcpS; Drug Conc 8 uM): 14.81 nM/min
AcpS rate (wild-type AcpS; Drug Conc 8 uM): 14.57 nM/min and 15.17 nM/min and 14.69 nM/min
AcpS rate nM/min, Mean (wild-type AcpS; Drug Conc 16 uM): 6.58 nM/min
AcpS rate (wild-type AcpS; Drug Conc 16 uM): 5.73 nM/min and 8.26 nM/min and 5.76 nM/min
AcpS rate nM/min, Mean (wild-type AcpS; Drug Conc 32 uM): 2.47 nM/min
AcpS rate (wild-type AcpS; Drug Conc 32 uM): 2.50 nM/min and 2.59 nM/min and 2.33 nM/min
AcpS rate nM/min, Mean (wild-type AcpS; Drug Conc 64 uM): 1.94 nM/min
AcpS rate (wild-type AcpS; Drug Conc 64 uM): 1.85 nM/min and 1.95 nM/min and 2.00 nM/min
AcpS rate nM/min, Mean (wild-type AcpS; Drug Conc 128 uM): 1.59 nM/min
AcpS rate (wild-type AcpS; Drug Conc 128 uM): 1.43 nM/min and 1.51 nM/min and 1.82 nM/min
remaining activity at 1 µM (wild-type AcpS; read-out: % of untreated, Suppl Fig 3, [AcpS_WT] 5 nM, Drug Conc 1 uM, replicates): 99.1%
remaining activity at 2 µM (wild-type AcpS; read-out: % of untreated, Suppl Fig 3, [AcpS_WT] 5 nM, Drug Conc 2 uM, replicates): 86.4%
remaining activity at 4 µM (wild-type AcpS; read-out: % of untreated, Suppl Fig 3, [AcpS_WT] 5 nM, Drug Conc 4 uM, replicates): 65.5%
remaining activity at 8 µM (wild-type AcpS; read-out: % of untreated, Suppl Fig 3, [AcpS_WT] 5 nM, Drug Conc 8 uM, replicates): 35.1%
remaining activity at 16 µM (wild-type AcpS; read-out: % of untreated, Suppl Fig 3, [AcpS_WT] 5 nM, Drug Conc 16 uM, replicates): 13.8%
remaining activity at 32 µM (wild-type AcpS; read-out: % of untreated, Suppl Fig 3, [AcpS_WT] 5 nM, Drug Conc 32 uM, replicates): 6.02%
remaining activity at 64 µM (wild-type AcpS; read-out: % of untreated, Suppl Fig 3, [AcpS_WT] 5 nM, Drug Conc 64 uM, replicates): 4.46%
remaining activity at 128 µM (wild-type AcpS; read-out: % of untreated, Suppl Fig 3, [AcpS_WT] 5 nM, Drug Conc 128 uM, replicates): 3.45%
toxicity to dermal cells, histopathology ([3]; 2% cream, 18 days of exposure of the rabbit ear wound): no indication of toxicity
erythema, edema, angiogenesis and epithelization scores ([3]; 2% cream, 18 days, compared to 2% mupirocin or cream control): improved
Angiogenesis ([3]; Suppl Fig 7, score per wound): 1 and 2
Edema ([3]; Suppl Fig 7, score per wound): 1 and 2
Erythema ([3]; Suppl Fig 7, score per wound): 1 and 2
Granulation ([3]; Suppl Fig 7, score per wound): 2 and 1
Inflammation ([3]; Suppl Fig 7, score per wound): 2 and 3 and 4
